The data set is described as follows: Solubilities of various complexes in toluene at 20° C. The note with it: table title: Solubilities of various complexes. It counts as physicochemical.

Consider `c1ccc(-c2ccc3[c](c2)[Ir-3]24([c]5cc(-c6ccccc6)ccc5-c5cccc[n+]52)([c]2cc(-c5ccccc5)ccc2-c2cccc[n+]24)[n+]2ccccc2-3)cc1` [Compound 1, fac-Tris[2-(2-pyridinyl-κN)(5-(phenyl)phenyl)-κC]iridium(III)], for which the “Solubility in toluene at 20° C.” value stood at 6.3 g/L.
Regarding `Cc1ccccc1-c1ccc2[c](c1)[Ir-3]13([c]4cc(-c5ccccc5C)ccc4-c4cccc[n+]41)([c]1cc(-c4ccccc4C)ccc1-c1cccc[n+]13)[n+]1ccccc1-2` [Compound 2, fac-tris[2-(2-pyridinyl-κN)(5-(o-tolyl)phenyl)-κC]iridium(III)], the “Solubility in toluene at 20° C.” value came out at 25 g/L.
Turning to `Cc1ccc(C)c(-c2ccc3[c](c2)[Ir-3]24([c]5cc(-c6cc(C)ccc6C)ccc5-c5cccc[n+]52)([c]2cc(-c5cc(C)ccc5C)ccc2-c2cccc[n+]24)[n+]2ccccc2-3)c1` [Compound 7, fac-Tris[2-(2-pyridinyl-κN)(5-(2,5-dimethylphenyl)phenyl)-κC]-iridium(III)], the “Solubility in toluene at 20° C.” value was 32 g/L.
The figure for `CC(C)COc1ccc(-c2ccc3[c](c2)[Ir-3]24([c]5cc(-c6ccc(OCC(C)C)c(OCC(C)C)c6)ccc5-c5cccc[n+]52)([c]2cc(-c5ccc(OCC(C)C)c(OCC(C)C)c5)ccc2-c2cccc[n+]24)[n+]2ccccc2-3)cc1OCC(C)C` [Compound 8, fac-Tris[2-(2-pyridinyl-κN)(5-(3,4-bis(2-methylpropoxy)phenyl)phenyl)-κC]iridium(III)] is 92 g/L.

For the origin of these results see patent US7883785B2, “Rhodium and iridium complexes” (Merck Patent GmbH, priority 2002, dated 2011).
